Data from patent US8501936B2 (priority 2009, dated 2013).

Assays:
human FAK = human FAK (Homo sapiens (Human), UniProt Q05397); conditions: read-out: FAK IC50
Protocol: The ability of compounds to inhibit the kinase activity of baculovirus-expressed human FAK and PYK2 was measured using the 96-well plate TRF assay system described above for JAK2. […] For the FAK kinase assay, the reaction mixture (total volume=100 μL/well) contained 20 mM HEPES (pH 7.2), 10 μM ATP, 5 mM MgCl2, 0.5 mM DTT, 0.1% BSA, and test compound (diluted in DMSO; 2.5% DMSO final in assay). For PYK2, the 100 μL assay solution consisted of 20 mM HEPES (pH 7.2), 3 μM ATP, 5 mM MnCl2, 0.1% BSA, and test compound (diluted in DMSO; 2.5% DMSO final in assay). Enzyme (10 ng/mL FAK or 25 ng/mL PYK2) was added and the reaction was allowed to proceed at room temperature for 30 min. Detection of the phosphorylated product was performed by adding 100 μL/well of Eu—N1 labeled PY100 antibody diluted 1:75000 in 0.25% BSA in TBS-T (PerkinElmer #AD0041). […] Inhibition data were analyzed using ActivityBase and IC50 curves generated using XLFit.

human JAK2 = human JAK2 (Homo sapiens (Human), UniProt O60674); conditions: read-out: JAK2 IC50
Chain of human JAK2 (O60674 815-1132): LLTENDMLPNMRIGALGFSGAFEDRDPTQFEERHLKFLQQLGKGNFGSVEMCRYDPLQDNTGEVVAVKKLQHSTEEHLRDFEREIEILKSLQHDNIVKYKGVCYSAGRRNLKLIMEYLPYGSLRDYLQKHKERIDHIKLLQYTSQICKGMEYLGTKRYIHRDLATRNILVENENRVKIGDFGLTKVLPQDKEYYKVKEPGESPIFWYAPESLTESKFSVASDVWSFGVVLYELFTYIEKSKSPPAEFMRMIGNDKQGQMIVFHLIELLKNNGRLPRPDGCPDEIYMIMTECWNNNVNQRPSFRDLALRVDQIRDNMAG

Chain of human FAK (Q05397 whole entry): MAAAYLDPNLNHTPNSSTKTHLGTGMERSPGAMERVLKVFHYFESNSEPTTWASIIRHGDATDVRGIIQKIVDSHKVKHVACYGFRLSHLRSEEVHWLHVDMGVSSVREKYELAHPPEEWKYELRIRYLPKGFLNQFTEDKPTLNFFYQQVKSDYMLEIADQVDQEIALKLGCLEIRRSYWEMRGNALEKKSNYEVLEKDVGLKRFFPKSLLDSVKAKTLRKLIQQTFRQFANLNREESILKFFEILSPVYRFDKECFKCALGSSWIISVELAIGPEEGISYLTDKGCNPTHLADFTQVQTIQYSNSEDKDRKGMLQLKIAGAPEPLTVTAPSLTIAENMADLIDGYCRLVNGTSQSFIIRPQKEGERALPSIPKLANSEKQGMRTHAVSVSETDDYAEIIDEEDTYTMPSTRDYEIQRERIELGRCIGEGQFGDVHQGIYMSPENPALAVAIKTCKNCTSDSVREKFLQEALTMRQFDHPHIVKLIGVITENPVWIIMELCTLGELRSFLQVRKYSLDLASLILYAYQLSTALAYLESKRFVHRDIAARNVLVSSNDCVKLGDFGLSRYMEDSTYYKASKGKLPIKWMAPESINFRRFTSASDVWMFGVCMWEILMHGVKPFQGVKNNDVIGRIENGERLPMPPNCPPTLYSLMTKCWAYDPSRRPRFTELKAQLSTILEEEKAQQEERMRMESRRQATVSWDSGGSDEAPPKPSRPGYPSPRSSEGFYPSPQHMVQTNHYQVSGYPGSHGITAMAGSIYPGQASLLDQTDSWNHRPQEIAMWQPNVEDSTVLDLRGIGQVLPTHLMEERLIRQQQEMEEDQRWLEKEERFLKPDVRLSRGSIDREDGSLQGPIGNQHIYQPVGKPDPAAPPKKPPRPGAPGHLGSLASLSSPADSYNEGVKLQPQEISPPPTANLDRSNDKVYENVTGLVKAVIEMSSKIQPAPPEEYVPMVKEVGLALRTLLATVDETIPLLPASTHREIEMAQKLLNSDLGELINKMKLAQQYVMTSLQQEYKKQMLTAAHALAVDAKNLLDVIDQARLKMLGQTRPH

**Q.** For `CN1CCN(c2cccc(Nc3nc4c(OCc5cccc(Cl)c5)cccn4n3)c2)CC1` [Example 261, [8-(3-Chloro-benzyloxy)-[1,2,4]triazolo[1,5-a]pyridin-2-yl]-[3-(4-methyl-piperazin-1-yl)-phenyl]-amine], which IC50 (human FAK) is on record?
**A.** The IC50 was 1590 nM.

**Q.** What about the IC50 (human JAK2) of the same compound?
**A.** The IC50 was 99.5 nM.

**Q.** What does the source list for `CN1CCN(c2ccc(Nc3nc4c(OCc5ccccc5C#N)cccn4n3)cc2)CC1` [Example 262, 2-{2-[4-(4-Methyl-piperazin-1-yl)-phenylamino]-[1,2,4]triazolo[1,5-a]pyridin-8-yloxymethyl}-benzonitrile]?
**A.** IC50 (human FAK): 2560 nM; IC50 (human JAK2): 15.1 nM

**Q.** `CC(=O)Nc1cccc(Nc2nc3c(-c4ccc(S(C)(=O)=O)cc4)cccn3n2)c1` [Example 267, N-{3-[8-(4-Methanesulfonyl-phenyl)-[1,2,4]triazolo[1,5-a]pyridin-2-ylamino]-phenyl}-acetamide] was tested. Which IC50 (human FAK) did it give?
**A.** Its IC50 is 10000 nM.

**Q.** And the IC50 (human JAK2)?
**A.** The IC50 was 3.43 nM.

**Q.** What does the source list for `CS(=O)(=O)CCN1CCc2ccc(Nc3nc4c(-c5cc(C(F)(F)F)ccc5Cl)cccn4n3)cc2CC1` [Example 268, [8-(2-Chloro-5-trifluoromethyl-phenyl)-[1,2,4]triazolo[1,5-a]pyridin-2-yl]-[3-(2-methanesulfonyl-ethyl)-2,3,4,5-tetrahydro-1H-benzo[d]azopin-7-yl]-amine]?
**A.** IC50 (human FAK): 999 nM; IC50 (human JAK2): 16.8 nM

**Q.** `COc1ncccc1-c1cccn2nc(Nc3ccc(C4CCN(C(=O)OC(C)(C)C)CC4)cc3)nc12` [Example 271] was tested. Which IC50 (human FAK) did it give?
**A.** Its IC50 is 10000 nM.

**Q.** And the IC50 (human JAK2)?
**A.** The IC50 was 675 nM.

**Q.** For `COc1ncccc1-c1cccn2nc(Nc3ccc(C4CCNCC4)cc3)nc12` [Example 272], which IC50 (human FAK) is on record?
**A.** The IC50 was 10000 nM.

**Q.** What about the IC50 (human JAK2) of the same compound?
**A.** Its IC50 is 377 nM.

**Q.** How did the IC50 (human FAK) turn out when `COc1ncccc1-c1cccn2nc(Nc3ccc(C4CCN(CC(=O)N(C)C)CC4)cc3)nc12` [Example 273, 2-(4-{4-[8-(2-Methoxy-pyridin-3-yl)-[1,2,4]triazolo[1,5-a]pyridine-2-ylamino]-phenyl}-piperidin-1-yl)-N,N-dimethyl-acetamide] was run?
**A.** Its IC50 is 999 nM.

**Q.** And the IC50 (human JAK2)?
**A.** The IC50 was 251 nM.

**Q.** `COc1ncccc1-c1cccn2nc(Nc3ccc4ncccc4c3)nc12` [Example 274, [8-(2-Methoxy-pyridin-3-yl)-[1,2,4]triazolo[1,5-a]pyridine-2-yl]-quinolin-6-yl-amine] was tested. Which IC50 (human FAK) did it give?
**A.** Its IC50 is 10000 nM.

**Q.** And the IC50 (human JAK2)?
**A.** The IC50 was 192 nM.

**Q.** What does the source list for `CN(C)C(=O)CN1CCC(c2ccc(Nc3nc4c(-c5ccc[nH]c5=O)cccn4n3)cc2)CC1` [Example 275, N,N-Dimethyl-2(4-{4-[8-(2-oxo-1,2-dihydro-pyridin-3-yl)-[1,2,4]triazolo[1,5-a]pyridine-2-ylamino]-phenyl}-piperidin-1-yl)-acetamide]?
**A.** IC50 (human FAK): 2000 nM; IC50 (human JAK2): 270 nM

**Q.** How did the IC50 (human FAK) turn out when `COc1ncc(C(F)(F)F)cc1-c1cccn2nc(Nc3ccc(C4CCNCC4)cc3)nc12` [Example 278, [8-(2-Methoxy-5-trifluoromethyl-pyridin-3-yl)-[1,2,4]triazolo[1,5-a]pyridine-2-yl]-(4-piperidine-4-yl-phenyl)-amine] was run?
**A.** Its IC50 is 10000 nM.

**Q.** And the IC50 (human JAK2)?
**A.** The IC50 was 133 nM.

**Q.** Which IC50 (human FAK) does the source give for `COc1ncc(C(F)(F)F)cc1-c1cccn2nc(Nc3ccc(C4CCN(CC(=O)N(C)C)CC4)cc3)nc12` [Example 279, 2-(4-{4-[8-(2-Methoxy-5-trifluoromethyl-pyridin-3-yl)-[1,2,4]triazolo[1,5-a]pyridin-2-ylamino]-phenyl}-piperidin-1-yl)-N,N-dimethyl-acetamide] here?
**A.** The IC50 was 10000 nM.

**Q.** What about the IC50 (human JAK2) of the same compound?
**A.** The IC50 was 74.6 nM.

**Q.** Which results are given for `Fc1ccc(-n2cc(-c3cccn4nc(Nc5ccc(C6CCNCC6)cc5)nc34)cn2)cc1` [Example 282]?
**A.** IC50 (human FAK): 999 nM; IC50 (human JAK2): 2.12 nM

**Q.** For `COc1cnc(-c2cccn3nc(Nc4ccc(C5CCNCC5)cc4)nc23)cn1` [Example 285], which IC50 (human FAK) is on record?
**A.** Its IC50 is 2470 nM.

**Q.** What about the IC50 (human JAK2) of the same compound?
**A.** Its IC50 is 73.8 nM.

**Q.** With `COc1cnc(-c2cccn3nc(Nc4ccc(C5CCN(CC(=O)N(C)C)CC5)cc4)nc23)cn1` [Example 286, 2-(4-{4-[8-(5-Methoxy-pyrazin-2-yl)-[1,2,4]triazolo[1,5-a]pyridine-2-ylamino]-phenyl}-piperidin-1-yl)-N,N-dimethyl-acetamide] as the compound, how does the IC50 (human FAK) read?
**A.** Its IC50 is 3000 nM.

**Q.** And the IC50 (human JAK2)?
**A.** The IC50 was 134 nM.

**Q.** Which results are given for `CN1CCN(c2cccc(Nc3nc4c(-c5cnn(-c6ccc(F)cc6)c5)cccn4n3)c2)CC1` [Example 288, {8-[1-(4-Fluoro-phenyl)-1H-pyrazol-4-yl]-[1,2,4]triazolo[1,5-a]pyridine-2-yl}-[3-(4-methyl-piperazin-1-yl)-phenyl]-amine]?
**A.** IC50 (human FAK): 3000 nM; IC50 (human JAK2): 5.64 nM

**Q.** `Cc1ccc(-n2cc(-c3cccn4nc(Nc5ccc(C6CCNCC6)cc5)nc34)cn2)cc1` [Example 289, (4-Piperidin-4-yl-phenyl)-[8-(1-p-tolyl-1H-pyrazol-4-yl)-[1,2,4]triazolo[1,5-a]pyridine-2-yl]-amine] was tested. Which IC50 (human FAK) did it give?
**A.** Its IC50 is 2420 nM.

**Q.** And the IC50 (human JAK2)?
**A.** The IC50 was 4.04 nM.

**Q.** `CC(C)COc1cccc(-c2cccn3nc(Nc4ccc5c(c4)CCNCC5)nc23)c1` [Example 294, [8-(3-Isobutoxy-phenyl]-[1,2,4]triazolo[1,5a]pyridine-2-yl]-(2,3,4,5-tetrahydro-benzo[d]azepin-7-yl)-amine] was tested. Which IC50 (human FAK) did it give?
**A.** The IC50 was 3000 nM.

**Q.** What about the IC50 (human JAK2) of the same compound?
**A.** Its IC50 is 32.6 nM.

**Q.** Which IC50 (human FAK) does the source give for `Cc1ccc(-c2cccn3nc(Nc4ccc5c(c4)CCNCC5)nc23)c(OCC(C)C)c1` [Example 296, [8-(2-Isobutoxy-4-methyl-phenyl]-[1,2,4]triazolo[1,5a]pyridine-2-yl]-(2,3,4,5-tetrahydro-benzo[d]azepin-7-yl)-amine] here?
**A.** Its IC50 is 3000 nM.

**Q.** What about the IC50 (human JAK2) of the same compound?
**A.** Its IC50 is 2800 nM.

**Q.** With `Cn1ncc2c(-c3cccn4nc(Nc5ccc6c(c5)CCNCC6)nc34)cccc21` [Example 298, [8-(1-Methyl-1H-indazol-4-yl)-[1,2,4]triazolo[1,5a]pyridine-2-yl]-(2,3,4,5-tetrahydro-benzo[d]azepin-7-yl)-amine] as the compound, how does the IC50 (human FAK) read?
**A.** The IC50 was 1030 nM.

**Q.** What about the IC50 (human JAK2) of the same compound?
**A.** Its IC50 is 16.5 nM.

**Q.** With `c1ccc(-c2cccn3nc(Nc4ccc5c(c4)CCNCC5)nc23)c(OCC2CC2)c1` [Example 301, [8-(2-Cyclopropylmethoxy-phenyl]-[1,2,4]triazolo[1,5a]pyridine-2-yl]-(2,3,4,5-tetrahydro-benzo[d]azepin-7-yl)-amine] as the compound, how does the IC50 (human FAK) read?
**A.** Its IC50 is 2790 nM.

**Q.** What about the IC50 (human JAK2) of the same compound?
**A.** Its IC50 is 112 nM.

**Q.** What does the source list for `Cc1ccc(OCC(C)C)c(-c2cccn3nc(Nc4ccc5c(c4)CCNCC5)nc23)c1` [Example 305, [8-(2-Isobutoxy-5-methyl-phenyl]-[1,2,4]triazolo[1,5a]pyridine-2-yl]-(2,3,4,5-tetrahydro-benzo[d]azepin-7-yl)-amine]?
**A.** IC50 (human FAK): 10000 nM; IC50 (human JAK2): 3080 nM

**Q.** `CCCOc1ccc(Cl)cc1-c1cccn2nc(Nc3ccc4c(c3)CCNCC4)nc12` [Example 307, [8-(5-Chloro-2-propoxy-phenyl]-[1,2,4]triazolo[1,5a]pyridine-2-yl]-(2,3,4,5-tetrahydro-benzo[d]azepin-7-yl)-amine] was tested. Which IC50 (human FAK) did it give?
**A.** Its IC50 is 1050 nM.

**Q.** What about the IC50 (human JAK2) of the same compound?
**A.** Its IC50 is 828 nM.

**Q.** Which IC50 (human FAK) does the source give for `CCCOc1ccc(Cl)cc1-c1cccn2nc(Nc3ccc4c(c3)CCN(CC(=O)N(C)C)CC4)nc12` [Example 308, 2-{7-[8-(5-Chloro-2-propoxy-phenyl]-[1,2,4]triazolo[1,5a]pyridine-2-ylamino]1,2,4,5-tetrahydro-benzo[d]azepin-3-yl)-N,N-dimethyl-acetamide] here?
**A.** The IC50 was 946 nM.

**Q.** What about the IC50 (human JAK2) of the same compound?
**A.** The IC50 was 365 nM.

**Q.** `CCOc1ccc(Cl)cc1-c1cccn2nc(Nc3ccc4c(c3)CCNCC4)nc12` [Example 310, [8-(5-Chloro-2-ethoxy-phenyl]-[1,2,4]triazolo[1,5a]pyridine-2-yl]-(2,3,4,5-tetrahydro-benzo[d]azepin-7-yl)-amine] was tested. Which IC50 (human FAK) did it give?
**A.** The IC50 was 1230 nM.

**Q.** And the IC50 (human JAK2)?
**A.** The IC50 was 33.4 nM.

**Q.** `COc1ccccc1-c1cccn2nc(Nc3ccc4c(c3)CCN(CC(=O)N(C)C)CC4)nc12` [Example 313, 2-{7-[8-(2-Methoxy-phenyl)-[1,2,4]triazolo[1,5-a]pyridine-2-ylamino]-1,2,4,5-tetrahydro-3-benzazepin-3-yl}-N,N-dimethyl-acetamide] was tested. Which IC50 (human FAK) did it give?
**A.** Its IC50 is 10000 nM.

**Q.** And the IC50 (human JAK2)?
**A.** The IC50 was 39.2 nM.

**Q.** How did the IC50 (human FAK) turn out when `COc1ccccc1-c1cccn2nc(Nc3ccc4c(c3)CCN(CCS(C)(=O)=O)CC4)nc12` [Example 314, [3-(2-Methanesulfonyl-ethyl)-2,3,4,5-tetrahydro-1H-3-benzazepin-7-yl]-[8-(2-methoxy-phenyl)-[1,2,4]triazolo[1,5-a]pyridine-2-yl]-amine] was run?
**A.** Its IC50 is 10000 nM.

**Q.** What about the IC50 (human JAK2) of the same compound?
**A.** Its IC50 is 17.8 nM.

**Q.** What does the source list for `COc1ccc(C(F)(F)F)cc1-c1cccn2nc(Nc3ccc4c(c3)CCN(CC(=O)N(C)C)CC4)nc12` [Example 317, 2-{7-[8-(2-Methoxy-5-trifluoromethyl-phenyl)-[1,2,4]triazolo[1,5-a]pyridin-2-ylamino]-1,2,4,5-tetrahydro-3-benzazepin-3-yl}-N,N-dimethyl-acetamide]?
**A.** IC50 (human FAK): 2000 nM; IC50 (human JAK2): 54.5 nM

**Q.** How did the IC50 (human FAK) turn out when `CCOc1ccc(C(F)(F)F)cc1-c1cccn2nc(Nc3ccc4c(c3)CCNCC4)nc12` [Example 319] was run?
**A.** Its IC50 is 1310 nM.

**Q.** What about the IC50 (human JAK2) of the same compound?
**A.** Its IC50 is 137 nM.

**Q.** For `CCOc1ccc(C(F)(F)F)cc1-c1cccn2nc(Nc3ccc4c(c3)CCN(CCS(C)(=O)=O)CC4)nc12` [Example 320, [8-(2-Ethoxy-5-trifluoromethyl-phenyl)-[1,2,4]triazolo[1,5-a]pyridin-2-yl]-[3-(2-methanesulfonyl-ethyl)-2,3,4,5-tetrahydro-1H-3-benzazepin-7yl)-amine], which IC50 (human FAK) is on record?
**A.** The IC50 was 3000 nM.

**Q.** What about the IC50 (human JAK2) of the same compound?
**A.** Its IC50 is 160 nM.

**Q.** Which IC50 (human FAK) does the source give for `CCOc1ccc(C(F)(F)F)cc1-c1cccn2nc(Nc3ccc4c(c3)CCN(CC(=O)N(C)C)CC4)nc12` [Example 321, 2-{7-[8-(2-Ethoxy-5-trifluoromethyl-phenyl)-[1,2,4]triazolo[1,5-a]pyridin-2-ylamino]-1,2,4,5-tetrahydro-3-benzazepin-3-yl}-N,N-dimethyl-acetamide] here?
**A.** The IC50 was 1780 nM.

**Q.** What about the IC50 (human JAK2) of the same compound?
**A.** The IC50 was 223 nM.

**Q.** Which results are given for `COc1ccc(C(F)(F)F)cc1-c1cccn2nc(Nc3ccc4c(c3)CCN(CCS(C)(=O)=O)CC4)nc12` [Example 322, [3-(2-Methanesulfonyl-ethyl)-2,3,4,5-tetrahydro-1H-3-benzazepin-7-yl]-[8-(2-methoxy-5-trifluoromethyl-phenyl)-[1,2,4]triazolo[1,5-a]pyridine-2-yl]-amine]?
**A.** IC50 (human FAK): 572 nM; IC50 (human JAK2): 12.7 nM

**Q.** Which IC50 (human FAK) does the source give for `COc1ccc(F)cc1-c1cccn2nc(Nc3ccc4c(c3)CCN(CC(=O)N(C)C)CC4)nc12` [Example 323, 2-{7-[8-(5-Fluoro-2-methoxy-phenyl)-[1,2,4]triazolo[1,5-a]pyridin-2-ylamino]-1,2,4,5-tetrahydro-3-benzazepin-3-yl}-N,N-dimethyl-acetamide] here?
**A.** The IC50 was 691 nM.

**Q.** And the IC50 (human JAK2)?
**A.** Its IC50 is 11.3 nM.
